Measured values as given in publication PMC11054271, “ABCG2 Transports the Flukicide Nitroxynil and Affects Its Biodistribution and Secretion into Milk” (Pharmaceutics, 2024).
Like-named read-outs stand apart in the source and are kept apart here.

How the values were obtained:
murine Abcg2 [1] = target: T1, murine Abcg2 (Mus musculus, UniProt Q7TMS5); test: Transepithelial transport assay in MDCK-II cells transduced with murine Abcg2; assay type: in vitro ADME; set-up: expressed in transfected cells; host or cells: MDCK-II (canine kidney) subclone, provided by A. H. Schinkel (Netherlands Cancer Institute); conditions: MDCK-II mAbcg2, nitroxynil 10 µM, no Ko143, read-out: Relative efflux transport ratio (BA/AB)
T1 sequence (Q7TMS5 1-657): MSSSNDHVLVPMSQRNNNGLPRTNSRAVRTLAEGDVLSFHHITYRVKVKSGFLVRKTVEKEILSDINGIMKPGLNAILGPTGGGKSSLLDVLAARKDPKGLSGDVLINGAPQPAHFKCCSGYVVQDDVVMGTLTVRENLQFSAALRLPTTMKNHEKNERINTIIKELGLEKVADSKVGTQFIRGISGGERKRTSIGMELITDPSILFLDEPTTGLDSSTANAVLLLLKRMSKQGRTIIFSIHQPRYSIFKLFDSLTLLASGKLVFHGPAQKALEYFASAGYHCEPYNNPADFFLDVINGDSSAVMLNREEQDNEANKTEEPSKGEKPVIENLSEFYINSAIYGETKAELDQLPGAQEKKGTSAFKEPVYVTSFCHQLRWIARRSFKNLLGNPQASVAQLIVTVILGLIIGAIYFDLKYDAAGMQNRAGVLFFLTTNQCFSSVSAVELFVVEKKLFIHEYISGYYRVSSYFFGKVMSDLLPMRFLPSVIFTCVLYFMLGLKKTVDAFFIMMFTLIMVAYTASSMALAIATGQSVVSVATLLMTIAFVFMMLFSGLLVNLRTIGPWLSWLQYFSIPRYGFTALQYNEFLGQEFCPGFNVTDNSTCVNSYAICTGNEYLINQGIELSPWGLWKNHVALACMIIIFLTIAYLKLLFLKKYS
Experimental: Parental Madin–Darby canine kidney epithelial cells (MDCK–II) and their subclones transduced with murine (mAbcg2) and human (hABCG2) variants of ABCG2 were kindly provided by Dr. A. H. Schinkel (Netherlands Cancer Institute). Transduced MDCK–II cells with the ovine (oABCG2) and bovine (bABCG2) variants were previously generated by our group. Cells were cultured as described elsewhere.
Transepithelial transport assays were carried out as previously described with minor variations, using Hanks’ balanced salt solution (Sigma-Aldrich) supplemented with HEPES (25 mM), with or without Ko143 (1 μM), and containing or not nitroxynil 10 μM. […] At the end of the experiment, confluence of the monolayer was measured with the previously described Lucifer Yellow permeability test, with minor modifications. The appearance of nitroxynil in the opposite side of the well was measured by HPLC as later described. Active transport was expressed as relative efflux transport ratio (apically directed transport percentage divided by the basolaterally directed translocation percentage) at 4 h and referred to the initial concentration. […]
Waters 2695 separation module and Waters 2998 UV photodiode array detector set at 270 nm were used for samples analysis. […] Limit of detection (LOD) and quantification (LOQ) were calculated as previously described. […]

[2] = set-up: method as in PMID 21657788; conditions: cited from earlier work
murine Abcg2 [3] = test: Tissue distribution in wild-type and Abcg2−/− male mice; assay type: in vivo; conditions: 10 mg/kg s.c.
Experimental: All in vivo experiments were carried out using wild-type and Abcg2^−/− mice aged between 8 and 17 weeks, all of >99% FVB/N genetic background, generated and gently supplied by A. H. Schinkel (Netherlands Cancer Institute). Mice were housed and handled complying with institutional and ARRIVE guidelines and European legislation (EU Directive 2010/63/EU for animal experiments). Additionally, experimental procedures were approved by the Animal Care and Use Committee of the University of León and the Junta de Castilla y León (ULE_011_2019).
For pharmacokinetic experiments, a single dose of nitroxynil at 10 mg/kg was administered subcutaneously to wild-type and Abcg2^−/− male mice (n = 4–5, for each time point). Distomicide® (250 mg/mL) commercial solution was dissolved in saline (sodium chloride 0.9%) and dosed at 200 μL per 30 g body weight. Blood samples were collected at different time points (0.5, 3, 4.5, 6, 24, 48 and 96 h) and heparinized blood samples were centrifugated for 15 min at 3000× g. Organs were also collected at 24 and 96 h after euthanasia. Linear trapezoidal rule was used to calculate the area under the plasma concentration–time curve (AUC) parameter.
Plasma, milk and tissue samples from each animal were individually processed and analyzed without pooling, while samples from transport assays were not processed. Tissue samples were homogenized in a mixture of 50% water/50% methanol HCl 0.5% (v/v); 1 mL solution per 0.1 g tissue. The entire amount of collected milk (74.7–295.1 mg) and 100 μL plasma and tissue homogenates were processed. To each sample, 10 μL of a nitrofurantoin solution (10 μg/mL for plasma and milk and 2 μg/mL for homogenized tissues) was added as an internal standard and 150 μL acetonitrile was used to precipitate the proteins. The mixture was vortexed horizontally for 15 min and centrifugated at 10,000× g for 5 min at 4 °C. Supernatant was transferred to a new tube and dried at 40 °C under N2 stream. Samples were reconstituted in 100 μL of mobile phase and 50 μL was injected into HPLC. Standards were subjected to the same procedures as samples.
Waters 2695 separation module and Waters 2998 UV photodiode array detector set at 270 nm were used for samples analysis. Chromatographic conditions for nitroxynil detection were based on previously described methods, with minor modifications. Chromatographic separation was achieved on a reverse-phase column (Synergy 4 μm Hydro–RP 80 Å, 250 × 4.60 mm; Phenomenex®, Torrance, CA, USA) using an isocratic binary mobile phase consisting of 25 mM potassium phosphate monobasic (KH2PO4), pH 4: acetonitrile (70:30 for culture samples and 80:20 for animal samples) at a flow rate of 1 mL/min. Autosampler and column temperature were 4 °C and 40 °C, respectively. Limit of detection (LOD) and quantification (LOQ) were calculated as previously described. For cell culture samples, LOD and LOQ were 0.003 μg/mL and 0.007 μg/mL, respectively. For in vivo samples, LOD was in the range of 0.01–0.07 μg/mL and LOQ in the range of 0.03–0.15 μg/mL.

In the case of `N#Cc1cc(I)c(O)c([N+](=O)[O-])c1` [nitroxynil], the efflux ratio at 4 h, 10 µM (murine Abcg2 [1]) is given as 32.3 ± 7.59, the “Time after treatment at which residues have been found in milk” value [2] is given as “up to 58 days” and the “Tissue concentration, spleen” value (murine Abcg2 [3]; Abcg2−/− male mice, 96 h) is given as “<LOQ”. The Kp at 96 h (murine Abcg2 [3]; FVB/N, mouse, kidney and plasma, sc, Abcg2−/− male mice, 96 h, read-out: Tissue/plasma ratio, kidney) was 0.03 ± 0.01, the concentration at 24 h (murine Abcg2 [3]; FVB/N, mouse, kidney, sc, Abcg2−/− male mice, read-out: Tissue concentration, kidney) was 8200 ± 1800 ng/g and the concentration at 96 h (murine Abcg2 [3]; FVB/N, mouse, kidney, sc, Abcg2−/− male mice, 96 h, read-out: Tissue concentration, kidney) was 3500 ± 300 ng/g. For the same compound, the concentration at 24 h (murine Abcg2 [3]; FVB/N, mouse, liver, sc, Abcg2−/− male mice, read-out: Tissue concentration, liver) was 1300 ± 300 ng/g, the concentration at 96 h (murine Abcg2 [3]; FVB/N, mouse, liver, sc, Abcg2−/− male mice, 96 h, read-out: Tissue concentration, liver) was 700 ± 200 ng/g and the concentration at 24 h (murine Abcg2 [3]; FVB/N, mouse, small intestine, sc, Abcg2−/− male mice, read-out: Levels of nitroxynil in small intestine) was 1600 ± 300 ng/mL. For the same compound, the concentration at 24 h (murine Abcg2 [3]; FVB/N, mouse, small intestine, sc, Abcg2−/− male mice, read-out: Tissue concentration, small intestine) was 1600 ± 300 ng/g, the concentration at 96 h (murine Abcg2 [3]; FVB/N, mouse, small intestine, sc, Abcg2−/− male mice, 96 h, read-out: Tissue concentration, small intestine) was 500 ± 100 ng/g and the concentration at 24 h (murine Abcg2 [3]; FVB/N, mouse, spleen, sc, Abcg2−/− male mice, read-out: Accumulation in spleen) was 2500 ± 300 ng/mL. For the same compound, the concentration at 24 h (murine Abcg2 [3]; FVB/N, mouse, spleen, sc, Abcg2−/− male mice, read-out: Tissue concentration, spleen) was 2500 ± 300 ng/g, the concentration at 24 h (murine Abcg2 [3]; FVB/N, mouse, testis, sc, Abcg2−/− male mice, read-out: Concentration in testis) was 4200 ± 800 ng/mL and the concentration at 24 h (murine Abcg2 [3]; FVB/N, mouse, testis, sc, Abcg2−/− male mice, read-out: Tissue concentration, testis) was 4200 ± 800 ng/g. For the same compound, the concentration at 96 h (murine Abcg2 [3]; FVB/N, mouse, testis, sc, Abcg2−/− male mice, 96 h, read-out: Tissue concentration, testis) was 1100 ± 200 ng/g and the Brain levels (murine Abcg2 [3]; wild-type and Abcg2−/− male mice, 24 and 96 h, almost all samples) was “below LOQ”.
